# Target: T1, recombinant human 5-HT5A receptor (Homo sapiens, UniProt P47898)
# T1 construct: expressed in transfected cells; host or cells: HEK-EBNA (Human Embryonic Kidney-EBNA) cells, transient cDNA expression; membranes
# Assay: [3H]LSD radioligand binding assay
# Conditions: [3H]LSD approx. 1 nM; membranes from HEK-EBNA cells transiently expressing 5-HT5A; Ki by Cheng-Prussoff equation
# Procedure: A [^3H]LSD radioligand binding assay was used to determine the affinity of the compounds for the recombinant human 5-HT5A receptor, in membranes from transiently (cDNA) expressed 5-HT5A receptors in Human Embryonic Kidney-EBNA (HEK-EBNA) cells. Assay buffer consisted of Tris (50 mM) buffer containing 1 mM EGTA, 10 mM MgCl2 (pH 7.4) and 10 μM pargyline. The binding assay was carried out in 96-well-plates in the presence of [^3H]LSD (approximately 1 nM), approximately 2 μg/well of membrane protein, and 0.5 mg of Ysi-poly-1-lysine SPA beads in a final volume of 200 μl of buffer. Non-specific binding was defined using methiothepin 2 μM. Compounds were tested at 10 concentrations. All assays were conducted in duplicate and repeated at least two times. Assay plates were incubated for 120 min at room temperature before centrifugation. Bound ligand was determined using a Packard Topcount scintillation counter. IC50 values were calculated using a non-linear curve fitting program and Ki values calculated using the Cheng-Prussoff equation.
# T1 sequence (P47898 whole entry): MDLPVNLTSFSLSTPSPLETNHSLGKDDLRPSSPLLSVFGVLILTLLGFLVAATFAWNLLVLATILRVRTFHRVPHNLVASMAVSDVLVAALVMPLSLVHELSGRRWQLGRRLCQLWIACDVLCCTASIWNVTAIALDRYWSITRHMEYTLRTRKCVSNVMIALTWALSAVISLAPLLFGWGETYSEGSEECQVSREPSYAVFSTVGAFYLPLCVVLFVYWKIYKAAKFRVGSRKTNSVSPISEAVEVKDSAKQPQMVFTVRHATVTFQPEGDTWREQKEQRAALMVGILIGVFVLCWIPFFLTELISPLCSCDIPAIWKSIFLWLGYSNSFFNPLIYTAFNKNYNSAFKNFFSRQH
row,SMILES,Ki [nM]
1,"Nc1cccc2nc(Nc3cccc(C4CC4)c3)ccc12 [Example 18, N^2-(3-Cyclopropyl-phenyl)-quinoline-2,5-diamine]",71.2
2,"CC1(C)Cc2cccc(Nc3ccc4c(N)cccc4n3)c2O1 [Example 16, N^2-(2,2-Dimethyl-2,3-dihydro-benzofuran-7-yl)-quinoline-2,5-diamine]",44.4
3,"COc1ccccc1CNc1ccc2c(C(=N)NO)cccc2n1 [Example 32, N-Hydroxy-2-(2-methoxy-benzylamino)-quinoline-5-carboxamidine]",44.7
4,"Nc1cccc2nc(NCc3ccccc3OC(F)(F)F)ccc12 [Example 13, N^2-(2-Trifluoromethoxy-benzyl)-quinoline-2,5-diamine]",93.9
5,"CC1Cc2cccc(Nc3ccc4c(N)cccc4n3)c2O1 (stereo not shown) [Example 15, N^2-(2-Methyl-2,3-dihydro-benzofuran-7-yl)-quinoline-2,5-diamine]",49.4
6,"COc1ccccc1CNc1ccc2c(OCCSC)cccc2n1 [Example 30, (2-Methoxy-benzyl)-[5-(2-methylsulfanyl-ethoxy)-quinolin-2-yl]-amine]",219
7,"CC1Cc2cccc(Nc3ccc4c(NS(=O)(=O)N(C)C)cccc4n3)c2O1 (stereo not shown) [Example 21, N,N-dimethyl-N′-{2-[(2-methyl-2,3-dihydro-1-benzofuran-7-yl)amino]quinolin-5-yl}sulfamide]",101

# The next lines start with the values.
row,Ki [nM],SMILES
1,112,"Cc1cc2cccc(Nc3ccc4c(N)cccc4n3)c2o1 [Example 14, N^2-(2-Methyl-benzofuran-7-yl)-quinoline-2,5-diamine]"
2,99.3,"Cc1ccc(CNc2ccc3c(NCC[S+](C)[O-])cccc3n2)o1 (stereo not shown) [Example 10, N^5-(2-Methanesulfinyl-ethyl)-N^2-(5-methyl-furan-2-ylmethyl)-quinoline-2,5-diamine]"
3,27.3,"COc1ccccc1CNc1ccc2c(N)cccc2n1 [Example 1, N^2-(2-Methoxy-benzyl)-quinoline-2,5-diamine]"
4,81.2,"CSCCNc1cccc2nc(NCc3ccc(C)o3)ccc12 [Example 9, N^2-(5-Methyl-furan-2-ylmethyl)-N^5-(2-methylsulfanyl-ethyl)-quinoline-2,5-diamine]"
5,60.4,"Cc1ccc(CNc2ccc3c(NS(=O)(=O)N(C)C)cccc3n2)o1 [Example 20, N,N-dimethyl-N′-(2-{[(5-methyl-2-furyl)methyl]amino}quinolin-5-yl)sulfamide]"
6,83.8,"Cc1ccc(CNc2ccc3c(N)cccc3n2)o1 [Example 2, N^2-(5-Methyl-furan-2-ylmethyl)-quinoline-2,5-diamine]"
7,61.8,"Cc1ccc(CNc2ccc3c(CCCCO)cccc3n2)o1 [Example 26, 4-{2-[(5-Methyl-furan-2-ylmethyl)-amino]-quinolin-5-yl}-butan-1-ol]"
8,92,"Cc1ccc(CNc2ccc3c(NC4CCOCC4)cccc3n2)o1 [Example 7, N^2-(5-Methyl-furan-2-ylmethyl)-N^5-(tetrahydro-pyran-4-yl)-quinoline-2,5-diamine]"

# Tested on: not given
# Assay: not given
# Conditions: not given
row,melting point [°C],SMILES
1,161,"COc1ccccc1CNc1ccc2c(C(=N)NO)cccc2n1 [Example 32, N-Hydroxy-2-(2-methoxy-benzylamino)-quinoline-5-carboxamidine]"
